Measurements taken from US20100210589A1, “METHOD FOR IMPROVING HEPATIC FUNCTION” (Kabushiki Kaisha Kayashibara Seibutsu Kagaku Kenkyujo, priority 2004, published 2010).

System: golden hamsters
Assay: Administration test of α-glucosyl-hesperidin on hamsters (serum GOT and GPT, cholesterol-supplemented feed)
Format: in vivo, golden hamster
Details: compared with hesperidin at equal molar dose
Description: The animal experiment using hamsters was performed to investigate the influences of the intake of α-glucosyl-hesperidin on hepatic functions.
A group of five golden hamsters of five weeks old was fed on liberal amount of “NMF Lab Animal Diet Powder” (produced by Oriental Yeast Co., Ltd.) with the administration of “αG-HESPERIDINPS®” (a powdery α-glucosyl-hesperidin containing […] of α-glucosyl-hesperidin, commercialized by Hayashibara Shoji, Inc.) dissolved in distilled water. α-Glucosyl-hesperidin was administered to the hamsters through a stomach sonde at a dose of 0.25 mmole (193 mg)/kg/body weight every day. After two-week administrations of α-glucosyl-hesperidin, the hamsters were fed for additional three weeks in the same way as described above except that their feed was supplemented with 1% by weight of cholesterol. At four hours after the final administrations, the hamsters were anesthetized and underwent laparotomy, and their large-venous blood samples were taken. After the separation of the hamsters' serums by a conventional method, the levels of GOT and GPT were measured. […] The other group was fed on liberal amount of “NMF Lab Animal Diet Powder” with no administration of the test articles and their blood samples were taken in the same way as describe above, and the serum levels of GOT and GPT were measured to obtain the data before the administrations.

SMILES: COc1ccc(C2CC(=O)c3c(O)cc(O[C@@H]4OC(CO[C@@H]5OC(C)[C@H](O)C(O)C5O)[C@@H](COC[C@H]5OC(CO)[C@@H](O)C(O)C5O)C(O)C4O)cc3O2)cc1O (stereo partly drawn) [α-Glucosyl-hesperidin, α-glucosyl-hesperidin]
- effect for keeping hepatic-function indexes (serum GOT, GPT) at a lower level: greater effect than that of hesperidin
